Source: patent publication US20200291018A1, “TAM KINASE INHIBITORS” (SYROS PHARMACEUTICALS, INC., priority 2017, published 2020)
pIC50: −log10 of the molar value.

Tests used:
AXL = target: T1, AXL (Homo sapiens, UniProt P30530); experiment: TR-FRET kinase activity assay, AXL; format: biochemical; settings: ATP at Km, 60 minutes
T1 sequence (P30530 26-894): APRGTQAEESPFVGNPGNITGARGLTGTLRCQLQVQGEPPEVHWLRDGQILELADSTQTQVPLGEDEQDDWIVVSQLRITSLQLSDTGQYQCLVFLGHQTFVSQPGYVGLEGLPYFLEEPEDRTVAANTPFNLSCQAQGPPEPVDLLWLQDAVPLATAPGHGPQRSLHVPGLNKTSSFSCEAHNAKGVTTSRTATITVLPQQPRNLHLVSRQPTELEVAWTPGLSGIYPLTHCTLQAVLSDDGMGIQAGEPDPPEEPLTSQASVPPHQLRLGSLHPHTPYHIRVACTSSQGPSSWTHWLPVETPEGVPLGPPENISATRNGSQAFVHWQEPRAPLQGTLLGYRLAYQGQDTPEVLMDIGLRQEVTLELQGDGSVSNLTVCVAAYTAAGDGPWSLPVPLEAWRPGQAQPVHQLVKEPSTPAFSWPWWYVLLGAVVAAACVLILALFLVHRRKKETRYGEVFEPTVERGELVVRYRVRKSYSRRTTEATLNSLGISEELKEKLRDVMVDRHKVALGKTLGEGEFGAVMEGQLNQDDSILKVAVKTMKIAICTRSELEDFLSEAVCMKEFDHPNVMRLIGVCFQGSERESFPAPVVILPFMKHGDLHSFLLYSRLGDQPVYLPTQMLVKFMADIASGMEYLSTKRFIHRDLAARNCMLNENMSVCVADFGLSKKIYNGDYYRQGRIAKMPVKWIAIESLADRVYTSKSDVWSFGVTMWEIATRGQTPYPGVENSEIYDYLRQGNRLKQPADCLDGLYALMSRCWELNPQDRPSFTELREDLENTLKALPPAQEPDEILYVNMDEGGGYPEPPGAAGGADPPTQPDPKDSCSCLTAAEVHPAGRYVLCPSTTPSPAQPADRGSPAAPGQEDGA
Method in brief: (§1)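 Steps: compound, enzyme and labeled peptide combined at RT (50 mM HEPES pH 7.5, 10 mM MgCl2, 1 mM DTT); ATP added at Km; 60 min reaction; EDTA quench; Eu-antibody development 30 min in darkness; TR-FRET measured and IC50 fitted.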

MERTK = target: T2, MERTK (Homo sapiens, UniProt Q12866); experiment: TR-FRET kinase activity assay, MERTK; format: biochemical; settings: for pIC50: TR-FRET activity assay, ATP at Km, 60 minutes, read-out: Mer IC50; for Mer/Flt3 ratio (FLT3 IC50/Mer IC50): ratio calculated as FLT3 IC50/Mer IC50
T2 sequence (Q12866 21-999): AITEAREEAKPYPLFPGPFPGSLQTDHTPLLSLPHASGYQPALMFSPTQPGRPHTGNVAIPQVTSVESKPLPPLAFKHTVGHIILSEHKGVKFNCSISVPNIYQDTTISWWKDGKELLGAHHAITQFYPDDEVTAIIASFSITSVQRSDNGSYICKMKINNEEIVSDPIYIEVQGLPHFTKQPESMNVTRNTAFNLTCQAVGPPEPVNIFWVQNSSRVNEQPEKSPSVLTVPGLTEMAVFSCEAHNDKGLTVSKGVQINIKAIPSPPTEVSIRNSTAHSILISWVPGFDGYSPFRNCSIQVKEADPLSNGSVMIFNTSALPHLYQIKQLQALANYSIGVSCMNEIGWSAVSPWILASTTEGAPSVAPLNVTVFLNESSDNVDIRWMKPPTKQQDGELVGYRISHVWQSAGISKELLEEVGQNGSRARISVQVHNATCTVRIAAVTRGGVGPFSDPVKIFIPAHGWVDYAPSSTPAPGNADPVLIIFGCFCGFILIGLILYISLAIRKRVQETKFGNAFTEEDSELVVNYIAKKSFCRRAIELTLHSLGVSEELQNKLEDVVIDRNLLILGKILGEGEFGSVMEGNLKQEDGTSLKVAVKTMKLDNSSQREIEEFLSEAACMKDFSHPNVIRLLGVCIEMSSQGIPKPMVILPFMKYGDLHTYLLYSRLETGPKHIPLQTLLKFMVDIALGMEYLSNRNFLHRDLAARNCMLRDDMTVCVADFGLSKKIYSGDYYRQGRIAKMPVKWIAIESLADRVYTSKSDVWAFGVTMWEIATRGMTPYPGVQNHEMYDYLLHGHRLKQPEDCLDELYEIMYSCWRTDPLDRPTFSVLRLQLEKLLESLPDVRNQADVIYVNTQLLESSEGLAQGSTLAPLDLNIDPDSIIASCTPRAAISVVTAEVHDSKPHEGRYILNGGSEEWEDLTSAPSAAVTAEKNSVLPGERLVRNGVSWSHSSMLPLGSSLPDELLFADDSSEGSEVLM
Method in brief: as §1

For `O[C@H]1CC[C@H](c2cnc(OC3CCNCC3)c3cnc(Nc4ccccc4F)nc32)CC1` [Compound 262], the pIC50 (AXL) was 6.00 to 7.00, the pIC50 (MERTK) was at least 7.00 and the “Mer/Flt3 ratio (FLT3 IC50/Mer IC50)” value (MERTK) was “++ (a ratio of between 10 and 100)”.

With `CC[C@H](C)Nc1ncc2c(=O)n(C[C@@H]3COCCN3C)cc([C@H]3CC[C@H](O)CC3)c2n1` [Compound 263] the pIC50 (AXL) was 6.00 to 7.00, the pIC50 (MERTK) was at least 7.00 and the “Mer/Flt3 ratio (FLT3 IC50/Mer IC50)” value (MERTK) was “+++ (a ratio of >100)”.

`CC[C@H](C)Nc1ncc2c(=O)n(CC34CCC(N(C)C)(CC3)CC4)cc([C@H]3CC[C@H](O)CC3)c2n1` [Compound 264] was tested, and the pIC50 (AXL) was at least 7.00, the pIC50 (MERTK) was at least 7.00 and the “Mer/Flt3 ratio (FLT3 IC50/Mer IC50)” value (MERTK) was “+++ (a ratio of >100)”.

In the case of `CC[C@H](C)Nc1ncc2c(=O)n(C[C@H]3COCCN3C)cc([C@H]3CC[C@H](O)CC3)c2n1` [Compound 265], the pIC50 (AXL) was 5.00 to 6.00, the pIC50 (MERTK) was at least 7.00 and the “Mer/Flt3 ratio (FLT3 IC50/Mer IC50)” value (MERTK) was “+++ (a ratio of >100)”.

`CC[C@H](C)Nc1ncc2c(=O)n([C@H]3CC[C@H](N(C)C)C3)cc([C@H]3CC[C@H](O)CC3)c2n1` [Compound 266] was tested, and the pIC50 (AXL) was 6.00 to 7.00, the pIC50 (MERTK) was at least 7.00 and the “Mer/Flt3 ratio (FLT3 IC50/Mer IC50)” value (MERTK) was “+++ (a ratio of >100)”.

With `CC[C@H](C)Nc1ncc2c(O[C@H]3CC[C@H](N(C)C)C3)ncc([C@H]3CC[C@H](O)CC3)c2n1` [Compound 267] the pIC50 (AXL) was at least 7.00, the pIC50 (MERTK) was at least 7.00 and the “Mer/Flt3 ratio (FLT3 IC50/Mer IC50)” value (MERTK) was “+++ (a ratio of >100)”.

For `CC(C)(C)Nc1ncc2c(OC3CCNCC3)ncc([C@H]3CC[C@H](O)CC3)c2n1` [Compound 268], the pIC50 (AXL) was 6.00 to 7.00, the pIC50 (MERTK) was at least 7.00 and the “Mer/Flt3 ratio (FLT3 IC50/Mer IC50)” value (MERTK) was “+++ (a ratio of >100)”.

With `O[C@H]1CC[C@H](c2cnc(OC3CCNCC3)c3cnc(Nc4ccc(F)cc4)nc32)CC1` [Compound 269] the pIC50 (AXL) was at least 7.00, the pIC50 (MERTK) was at least 7.00 and the “Mer/Flt3 ratio (FLT3 IC50/Mer IC50)” value (MERTK) was “+ (a ratio of >2.0 and <10)”.

`O[C@H]1CC[C@H](c2cnc(OC3CCNCC3)c3cnc(Nc4cccc(F)c4)nc32)CC1` [Compound 270] was tested, and the pIC50 (AXL) was at least 7.00, the pIC50 (MERTK) was at least 7.00 and the “Mer/Flt3 ratio (FLT3 IC50/Mer IC50)” value (MERTK) was “+ (a ratio of >2.0 and <10)”.

In the case of `CC[C@H](C)Nc1ncc2c(=O)n(-c3ccc(N)cc3)cc([C@H]3CC[C@H](O)CC3)c2n1` [Compound 271], the pIC50 (AXL) was 5.00 to 6.00, the pIC50 (MERTK) was at least 7.00 and the “Mer/Flt3 ratio (FLT3 IC50/Mer IC50)” value (MERTK) was “+++ (a ratio of >100)”.

With `COC(=O)c1ccc(Nc2ncc3c(OC4CCNCC4)ncc([C@H]4CC[C@H](O)CC4)c3n2)cc1` [Compound 272] the pIC50 (AXL) was at least 7.00, the pIC50 (MERTK) was at least 7.00 and the “Mer/Flt3 ratio (FLT3 IC50/Mer IC50)” value (MERTK) was “+ (a ratio of >2.0 and <10)”.

In the case of `CCOc1ncc([C@H]2CC[C@H](O)CC2)c2nc(N[C@@H](C)COC)ncc12` [Compound 273], the pIC50 (AXL) was 6.00 to 7.00, the pIC50 (MERTK) was at least 7.00 and the “Mer/Flt3 ratio (FLT3 IC50/Mer IC50)” value (MERTK) was “+++ (a ratio of >100)”.

For `CC(C)Nc1ncc2c(OC3CCOCC3)ncc(-c3cccc(CC#N)c3)c2n1` [Compound 274], the pIC50 (AXL) was 6.00 to 7.00, the pIC50 (MERTK) was at least 7.00 and the “Mer/Flt3 ratio (FLT3 IC50/Mer IC50)” value (MERTK) was “++ (a ratio of between 10 and 100)”.

`CC[C@H](C)Nc1ncc2c(OC3C[C@@H](C)O[C@@H](C)C3)ncc([C@H]3CC[C@H](O)CC3)c2n1` (stereo partly drawn) [Compound 275] was tested, and the pIC50 (AXL) was 5.00 to 6.00, the pIC50 (MERTK) was at least 7.00 and the “Mer/Flt3 ratio (FLT3 IC50/Mer IC50)” value (MERTK) was “+++ (a ratio of >100)”.

For `CC(C)Nc1ncc2c(OC3CCOCC3)ncc(-c3cccc(CC(=O)O)c3)c2n1` [Compound 276], the pIC50 (AXL) was 5.00 to 6.00, the pIC50 (MERTK) was 5.00 to 6.00 and the “Mer/Flt3 ratio (FLT3 IC50/Mer IC50)” value (MERTK) was “++ (a ratio of between 10 and 100)”.

For `O[C@H]1CC[C@H](c2cnc(OC3CCOCC3)c3cnc(N[C@H]4CCNC4)nc32)CC1` [Compound 277], the pIC50 (AXL) was 5.00 to 6.00, the pIC50 (MERTK) was 5.00 to 6.00 and the “Mer/Flt3 ratio (FLT3 IC50/Mer IC50)” value (MERTK) was “NS (a ratio of ≤2.0)”.
